In brackets after ≈: the same amount, converted by molar mass. Several values for one entry are separate records, joined by “and”; a condition that tells them apart may be missing. Equal entries are not always repeated.
What was measured:
[1] = system: Mycobacterium tuberculosis; assay: (§1) Antimycobacterial activity against isoniazid, rifampicin, ethambutol and pyrazinamide sensitive Mycobacterium tuberculosis H37Rv ATCC 25618 assessed as inhibition of bacterial growth incubated for 7 days by resazurin dye based colorimetric method analysis; type: functional; details: H37Rv ATCC 25618, 168 h, time 7 day
[2] = system: Mycobacterium tuberculosis; assay: as §1, with “Potency index, ratio of ethambutol MIC to test compound MIC for antimycobacterial” for “Antimycobacterial”; type: functional; details: time 7 day
[3] = Cytotoxicity against African green monkey Vero cells assessed as reduction in cell population incubated for 48 hrs by MTT assay; type: toxicity, cell-based; details: chlorocebus sabaeus
[4] = Cytotoxicity against mouse J774.A1 cells assessed as reduction in cell population incubated for 48 hrs by MTT assay; type: toxicity, cell-based
[5] = Cytotoxicity against human HepG2 cells assessed as reduction in cell population incubated for 48 hrs by MTT assay; type: toxicity, cell-based
[6] = system: Mycolicibacterium smegmatis; assay: Antimycobacterial activity against Mycobacterium smegmatis ATCC607 incubated for 24 hrs by resazurin dye based broth microdilution method; type: functional
Staphylococcus aureus = assay: Antibacterial activity against Staphylococcus aureus ATCC 25923 incubated for 18 hrs by resazurin dye based broth microdilution method; type: functional
Klebsiella pneumoniae = assay: Antibacterial activity against Klebsiella pneumoniae ATCC 13883 incubated for 18 hrs by resazurin dye based broth microdilution method; type: functional
[7] = system: Mycobacterium tuberculosis; assay: Antimycobacterial activity against Mycobacterium tuberculosis H37Rv ATCC 25618 assessed as fractional inhibitory concentration incubated for 7 days in presence of 2-aminoheptadecan-1-ol by resazurin dye based two-dimensional micro dilution checkerboard assay; type: functional; details: time 7 day
[8] = system: Mycobacterium tuberculosis; assay: Antimycobacterial activity against Mycobacterium tuberculosis H37Rv ATCC 25618 incubated for 7 days by resazurin dye based two-dimensional micro dilution checkerboard assay in presence of 1-(benzyloxy)heptadecan-2-amine; type: functional; details: time 7 day
[9] = system: Mycobacterium tuberculosis; assay: Antimycobacterial activity against Mycobacterium tuberculosis H37Rv ATCC 25618 incubated for 7 days by resazurin dye based two-dimensional micro dilution checkerboard assay in presence of 1-((3,4,5-trimethoxybenzyl)oxy)heptadecan-2-amine; type: functional; details: time 7 day

| Structure (SMILES) | MIC [1] | Ratio [2] | CC50 at 48 h [3] | CC50 at 48 h [4] | CC50 at 48 h [5] | MIC [6] | MIC (Staphylococcus aureus) | MIC (Klebsiella pneumoniae) | FIC [7] | FIC [8] | FIC [9] |
| --- | --- | --- | --- | --- | --- | --- | --- | --- | --- | --- | --- |
| CCCCCCCCCCCCCCCCCCCC(CN)NC(=O)OC(C)(C)C (configuration not stated) | 32 µM (≈ 13.7 µg/mL) | 11 | 51.4 µM | 36 µM | – | – | – | – | – | – | – |
| CCCCc1ccc(CCCCCCCCCC(N)CO)cc1 (configuration not stated) | 8 µM (≈ 2.56 µg/mL) | 45 | 25.4 µM | 11.7 µM | 45.6 µM | – | – | – | – | – | – |
| CCCCCCCCCCCC(N)CO (configuration not stated) | 64 µM (≈ 13.8 µg/mL) | 6 | 40.8 µM | 2.35 µM | – | – | – | – | – | – | – |
| CCCCCCCCCCCCCCCC(CO)NCCCCCCCCCC (configuration not stated) | 64 µM (≈ 26.4 µg/mL) | 6 | 104 µM | 55.3 µM | – | 128 µM (≈ 52.7 µg/mL) | 512 µM (≈ 211 µg/mL) | > 512 µM | – | – | – |
| CCCCCCCCCCCCCCCC(CNCC)NC(=O)OC(C)(C)C (configuration not stated) | 16 µM (≈ 6.38 µg/mL) | 23 | 17.7 µM | 19.8 µM | 107 µM | 32 µM (≈ 12.8 µg/mL) | ≤ 4 µM | 512 µM (≈ 204 µg/mL) | – | – | – |
| CCCCCCCCCCCC(CO)NCCCC (configuration not stated) | 32 µM (≈ 8.69 µg/mL) | 11 | 26 µM | 21.4 µM | – | – | – | – | – | – | – |
| CCCCCCCCCCCCCCCCCC(COCc1ccccc1)NCCCCCC (configuration not stated) | 64 µM (≈ 30.3 µg/mL) | 6 | 120 µM | 118 µM | – | > 512 µM | > 512 µM | > 512 µM | – | – | – |
| CCCCCCCCCCCCCCCC(CNCCCC)NC(=O)OC(C)(C)C (configuration not stated) | 8 µM (≈ 3.41 µg/mL) | 45 | 20.3 µM | 21.2 µM | 136 µM | 32 µM (≈ 13.7 µg/mL) | 16 µM (≈ 6.83 µg/mL) | > 512 µM | – | – | – |
| CCCCCCCCCCCCCCCC(CN=[N+]=[N-])NC(=O)OC(C)(C)C (configuration not stated) | > 64 µM | <5.6 | 63.8 µM | 104 µM | – | > 512 µM | > 512 µM | > 512 µM | – | – | – |
| CCCCCCCCCCCCCCCCCCCC(CO)N(CC)CC (configuration not stated) | > 64 µM | <5.6 | 117 µM | 102 µM | – | > 512 µM | > 512 µM | > 512 µM | – | – | – |
| CCCCCCCCCCCCCCCCCC(CO)NCC (configuration not stated) | 16 µM (≈ 5.24 µg/mL) | 23 | 23.6 µM | 135 µM | 192 µM | 64 µM (≈ 21 µg/mL) | 32 µM (≈ 10.5 µg/mL) | 512 µM (≈ 168 µg/mL) | – | – | – |
| CCCCCCCCCCCCCCCC(CNCC(=O)OCC)NC(=O)OC(C)(C)C (configuration not stated) | 32 µM (≈ 14.6 µg/mL) | 11 | 39 µM | 27.9 µM | – | – | – | – | – | – | – |
| CCCCCCCCCCCCCCCC(CO)N(CCCC)CCCC (configuration not stated) | 8 µM (≈ 3.07 µg/mL) | 45 | 47.2 µM | 22.4 µM | 82.5 µM | > 512 µM | – | – | – | – | – |
| CCCCCCCCCCCCCCCCCC(N)CO (configuration not stated) | 8 µM (≈ 2.4 µg/mL) | 45 | 53.2 µM | 9.65 µM | 200 µM | 256 µM (≈ 76.7 µg/mL) | 256 µM (≈ 76.7 µg/mL) | > 512 µM | – | – | – |
| CCCCCCCCCCCCCCCC(CN)NC(=O)OC(C)(C)C (configuration not stated) | 17.6 µM (≈ 6.52 µg/mL) | 20 | 21.9 µM | 5.18 µM | – | – | – | – | – | – | – |
| CCCCCCCCCCCCCCCC(CO)NCCCCCC (configuration not stated) | 64 µM (≈ 22.8 µg/mL) | 6 | 113 µM | 23.8 µM | – | 256 µM (≈ 91 µg/mL) | 128 µM (≈ 45.5 µg/mL) | > 512 µM | – | – | – |
| CCCCCCCCCCCCCCCC(COCc1ccccc1)NCC (configuration not stated) | 16 µM (≈ 6.23 µg/mL) | 23 | 26 µM | 21.6 µM | 237 µM | 32 µM (≈ 12.5 µg/mL) | 16 µM (≈ 6.23 µg/mL) | > 512 µM | – | – | – |
| CCCCCCCCCCCCCCCCCCCC(N)COCc1ccccc1 (configuration not stated) | 32 µM (≈ 13.4 µg/mL) | 11 | 126 µM | 23 µM | – | 256 µM (≈ 107 µg/mL) | > 512 µM | > 512 µM | – | – | – |
| CCCCc1ccc(CCCCCCCC(CO)NC(=O)OC(C)(C)C)cc1 (configuration not stated) | 32 µM (≈ 12.5 µg/mL) | 11 | 28.3 µM | 12.9 µM | – | – | – | – | – | – | – |
| CCCCc1ccc(CCCCCC(N)CO)cc1 (configuration not stated) | 64 µM (≈ 16.9 µg/mL) | 6 | 27.8 µM | 10.7 µM | – | – | – | – | – | – | – |
| CCCCCCCCCCCCCCCC(N)CN (configuration not stated) | > 64 µM | <5.6 | 192 µM | 217 µM | – | 512 µM (≈ 138 µg/mL) | > 512 µM | > 512 µM | – | – | – |
| C[C@H]1COc2c(N3CCN(C)CC3)c(F)cc3c(=O)c(C(=O)O)cn1c23 [LEVOFLOXACIN ANHYDROUS] | 0.35 µM and 0.13 µg/mL | – | – | – | – | – | – | – | 0.031 | 0.5 | 0.5 |

Source: ChEMBL document CHEMBL5625167, “In vitro bioevaluation and docking study of dihydrosphingosine and ethambutol analogues against sensitive and multi-drug resistant Mycobacterium tuberculosis” (Eur J Med Chem, 2023)
